Counter-ions that a name gives are not always drawn. Like-named read-outs stand apart in the source and are kept apart here.
Key:
5HT1D receptor = molecular target: T1, 5HT1D receptor (Bos taurus, UniProt F1MGM3); assay: 5HT1D receptor binding affinity (procedure of Peroutka et al.)
T1 construct: from tissue
Experimental: The compounds affinity for the 5HT1D site was determined by the binding procedure of Peroutka et al as reported in European Journal of Pharmacology, Vol. 163 at pages 133-166 (1989). […] Where multiple determinations of the binding affinity have been performed, the average is given followed by the number of determinations in parentheses.

5-HT1D receptors = 5-HT1D receptors (Canis lupus familiaris, UniProt P79250); set-up: species or system dog (canine); conditions: for Emax: dog, read-out: intrinsic (agonist) activity, saphenous vein preparation
Sequence of 5-HT1D receptors (P79250 whole entry): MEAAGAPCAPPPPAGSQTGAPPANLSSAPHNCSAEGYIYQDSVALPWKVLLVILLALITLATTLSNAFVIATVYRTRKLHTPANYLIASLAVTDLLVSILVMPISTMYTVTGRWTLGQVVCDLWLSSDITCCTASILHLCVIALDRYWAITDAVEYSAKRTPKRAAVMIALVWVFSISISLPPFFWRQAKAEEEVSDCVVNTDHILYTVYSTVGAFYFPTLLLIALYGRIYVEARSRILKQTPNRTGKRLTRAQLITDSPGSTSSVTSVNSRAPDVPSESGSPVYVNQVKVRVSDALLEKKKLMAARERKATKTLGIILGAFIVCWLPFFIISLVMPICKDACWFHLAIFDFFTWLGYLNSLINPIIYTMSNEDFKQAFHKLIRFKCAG
Experimental: (§1) In the following examples, the compounds binding affinity for both the 5HT1A receptor and 5HT1D receptors is reported. The compounds affinity for the 5HT1D site was determined by the binding procedure of Peroutka et al as reported in European Journal of Pharmacology, Vol. 163 at pages 133-166 (1989). The compounds affinity for the 5HT1A receptor was determined by the procedure of Gozlan et al., as reported in Nature, Volume 305, at pages 140-142 (1983). Where multiple determinations of the binding affinity have been performed, the average is given followed by the number of determinations in parentheses. Also, the PA2 value for the saphenous vein preparation as described in this application is given, followed by the intrinsic (agonist) activity in parentheses, expressed as a percentage. [drawing 10]
We have used canine saphenous vein for studying 5-HT1D receptors which is similar, although not totally identical, to human coronary 5-HT1D receptors (see Humphrey, P. P. A., Feniuk, W., Perren, M. J., Connor, H. E., Oxford, A. W., Coates, I. H. and Butina, D.: GR43175, a selective agonist for the 5-HT1 -like receptor in dog isolated saphenous vein, Br. J. Pharmacol. 94:1123-1132, 1988; Kaumann, A. J.: Human heart 5-HT receptors, Second international symposium on serotonin, from cell biology to pharmacology and therapeutics, Houston, Sep. 15-18, 1992).
Mongrel dogs weighing 12-18 kg were killed by an intravenous injection of an overdose of sodium pentobarbitol. Saphenous veins were isolated, removed, cleaned of surrounding connective tissue, and cut into helical strips in a dish containing Krebs-Henseleit solution with the following composition in mM: NaCl, 110.0; KCl, 4.8; CaCl2, 2.5; KH2 PO4, 1.2; EDTA(NaEDTA), 0.027; and was constantly bubbled with 95% O2 -5% CO2. Unless otherwise specified, the endothelium of the […] was removed by rubbing with a metal rod. The intactness or absence of functional endothelium was checked by the presence or absence of a relaxant effect of acetycholine (10^-5 M) in phenylephrine-contracted tissues (see Furchgott, R. F. and Zawadzki, J. V.: The obligatory role of endothelial cells in the relaxtion of arterial smooth muscle by acetycholine, Nature 288:373-376, 1980). Each muscle strip (3×30 mm) was set up in a tissue bath at 37° C. and loaded with 2 gram tension. Contractility of the tissues was measured isometrically with a Grass FT03 force-displacement transducer and recorded on a Strip chart recorder. The tissues were allowed to stabilize for 2 hours before the experiment was started, during which time they were washed repeatedly. Tissues were contracted with 3.162×10^-6 M phenylephrine and 40 mM KCl, which produced 60-70% of their maximum contractile responses, to condition the tissue. 5-HT dose response experiment was conducted. Test compounds were then incubated with the tissue before a second 5-HT dose response experiment was performed. Data are expressed as the pA2 value, the negative logarithm of the molar concentration of antagonist which produced a 2 fold shift in ED50 values of 5-HT dose response curves (see Van Rossum, J. M.: Cumulative dose-response curve: Technique for the making of dose-response curves in isolated organs and the evaluation of drug parameters, Arch. Int. Pharmacodyn. Ther. 143:299-330, 1963).

5HT1A receptor = molecular target: T2, 5HT1A receptor (Rattus norvegicus, UniProt P19327); assay: 5HT1A receptor binding affinity (procedure of Gozlan et al.)
T2 sequence (P19327 1-422): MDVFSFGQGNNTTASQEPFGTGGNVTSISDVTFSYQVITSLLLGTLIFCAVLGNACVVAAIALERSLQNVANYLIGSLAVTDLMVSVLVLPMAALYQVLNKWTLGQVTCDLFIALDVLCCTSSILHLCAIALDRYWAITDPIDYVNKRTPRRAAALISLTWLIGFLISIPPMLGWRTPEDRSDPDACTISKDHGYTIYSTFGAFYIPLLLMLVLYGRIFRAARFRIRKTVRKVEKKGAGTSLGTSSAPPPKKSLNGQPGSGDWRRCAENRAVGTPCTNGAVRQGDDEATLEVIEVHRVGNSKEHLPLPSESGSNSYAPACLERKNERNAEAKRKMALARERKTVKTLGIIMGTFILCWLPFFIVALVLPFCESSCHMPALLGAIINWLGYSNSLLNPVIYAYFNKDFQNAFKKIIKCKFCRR
Experimental: as §1, with “10] […]” for “10]”

[1] = average of multiple determinations where number in parentheses is given, read-out: IC50 (5HT1D Binding Affinity)
[2] = negative log molar concentration of antagonist producing 2 fold shift in ED50 of 5-HT dose response curves, read-out: pA2 (blocking of 5-HT1-like-mediated contraction in canine saphenous vein) (converted)
[3] = average of multiple determinations where number in parentheses is given, read-out: IC50 (5HT1A Binding Affinity)
[4] = canine saphenous vein, printed in parentheses after pA2

T1 sequence (F1MGM3 1-403): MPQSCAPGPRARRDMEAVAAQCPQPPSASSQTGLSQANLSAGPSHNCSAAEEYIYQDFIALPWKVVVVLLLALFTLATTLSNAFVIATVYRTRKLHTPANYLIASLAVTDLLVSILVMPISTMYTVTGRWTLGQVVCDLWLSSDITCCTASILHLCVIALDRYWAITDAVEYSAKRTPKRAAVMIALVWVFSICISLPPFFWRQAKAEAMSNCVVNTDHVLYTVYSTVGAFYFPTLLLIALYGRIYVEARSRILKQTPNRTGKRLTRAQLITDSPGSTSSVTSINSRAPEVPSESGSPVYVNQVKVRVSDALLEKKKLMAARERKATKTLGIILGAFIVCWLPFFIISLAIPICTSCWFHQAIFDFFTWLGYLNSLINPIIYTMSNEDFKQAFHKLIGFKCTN

Structure (SMILES) | IC50 (5HT1D receptor; [1]) [nM] | Emax (5-HT1D receptors) [%] | Kb (5-HT1D receptors; [2]) [nM] | IC50 (5HT1A receptor; [3]) [nM] | IC50 (5HT1D receptor) [nM] | other results
O=C(c1cc2c(N3CCN(CCc4ccccc4)CC3)cccc2s1)N1CCCC1 [Example 57, [4-(4-phenethyl-piperazin-1-yl)-benzo[b]thiophen-2-yl]-pyrrolidin-1-yl methanone hydrochloride] | 25 | 0 | 4.27 |  |  | 
COCc1cc2c(N3CCN(CCc4ccc(F)cc4)CC3)cccc2s1 [Example 46, 4-[4-(2-(4-fluorophenyl)-ethyl)-1-piperazinyl]benzo [b]thiophene 2-methoxymethyl hydrochloride, 0.2 hydrate] |  | 5 |  |  |  | IC50 (5HT1A receptor; read-out: IC50 (5HT1A Binding Affinity), average of multiple determinations where number in parentheses is given): 4 nM; IC50 (5HT1D receptor; read-out: IC50 (5HT1D Binding Affinity), average of multiple determinations where number in parentheses is given): 17 nM; pA2 (blocking of 5-HT1-like-mediated contraction in canine saphenous vein) (5-HT1D receptors; negative log molar concentration of antagonist producing 2 fold shift in ED50 of 5-HT dose response curves): 7.98
CCOC(=O)c1cc2c(N3CCN(CCc4ccc(Cl)cc4)CC3)cccc2s1 [Example 18, ethyl-4-[4-[2-(4-chlorophenyl)ethyl]-1-piperazinyl]-benzo[b]thiophene-2-carboxylate monohydrochloride] | 411 |  | 309 | 53 |  | 
O=C(Nc1ccccc1)c1cc2c(N3CCN(CCc4ccccc4)CC3)cccc2s1 [Example 12, 4-[4-(2-phenylethyl)-1-piperazinyl]-benzo[b]thiophene2-(N-phenyl)-carboxamide monohydrochloride] | 220 |  | 18.2 | 85 |  | Emax (5-HT1D receptors; [4]): 0%
N#Cc1cc2c(N3CCN(CCc4ccc(Cl)cc4)CC3)cccc2s1 [Example 20, 4-[4-[2-(4-chlorophenyl)ethyl]-1-piperazinyl]-benzo[b]thiophene-2-nitrile monohydrochloride] |  | 34 |  |  | 31 | IC50 (5HT1A receptor): 13 nM; Kb (5-HT1D receptors): 42.7 nM
CC(=O)c1cc2c(N3CCN(CCc4ccccc4)CC3)cccc2s1 [Example 42, 1-[4-(4-phenethyl-piperazin-1-yl)-benzo[b]thiophen-2-yl]ethanone hydrochloride] |  | 1 |  |  | 22 | Kb (5-HT1D receptors): 13.5 nM
CC(C)(O)c1cc2c(N3CCN(CCc4ccccc4)CC3)cccc2s1 [Example 41, 2-[4-[4-(2-phenylethyl)-1-piperazinyl]benzo[b]thiophene-2-]-(2-propanol) hydrochloride hemihydrate] |  | 16 | 36.3 |  | 16 | IC50 (5HT1A receptor): 4 nM
CN(C)C(=O)c1cc2c(N3CCN(CCc4ccccc4)CC3)cccc2s1 [Example 11, 4-[4-(2-phenylethyl)-1-piperazinyl]-benzo[b]thiophene-2-(N,N-dimethyl)-carboxamide monohydrochloride] | 3 |  | 0.977 | 2.3 |  | Emax (5-HT1D receptors; [4]): 2%
CCCN1CCN(c2cccc3sc(C(=O)OCC)cc23)CC1 [Example 34, Ethyl 4-[(4-propyl)-1-piperazinyl]benzo[b]thiophene-2-carboxylate hydrochloride] | 416 | 12 | 166 | 104 |  | 
O=C(c1cc2c(N3CCN(CCc4ccccc4)CC3)cccc2s1)N1CCCCC1 [Example 56, [4-(4-phenethyl-piperazin-1-yl)-benzo[b]thiophen-2-yl]-piperidin-1-yl methanone hydrochloride] | 135 | 2 | 112 |  |  | 
COCc1cc2c(N3CCN(CCc4ccccc4)CC3)cccc2s1 [Example 37, 4-[4-(2-phenylethyl)-1-piperazinyl]-benzo[b]thiophene-2-(O-methyl)-methanol hydrochloride] |  | 0 | 9.33 |  | 9 | IC50 (5HT1A receptor): 5 nM
N#Cc1cc2c(N3CCN(CCc4ccc(F)cc4)CC3)cccc2s1 [Example 24, 4-[4-[2-(4-fluorophenyl)ethyl]-1-piperazinyl]-benzo[b]thiophene-2-nitrile monohydrochloride] |  | 9 |  |  | 21 | IC50 (5HT1A receptor): 10 nM; Kb (5-HT1D receptors): 6.76 nM
CON(C)C(=O)c1cc2c(N3CCN(CCc4ccccc4)CC3)cccc2s1 [Example 40, 4-[4-(2-phenylethyl)-1-piperazinyl]-benzo[b]thiophene-2-(N-methyl-N-methoxy)-carboxamide hydrochloride] | 16 |  | 3.16 | 2.4 |  | Emax (5-HT1D receptors; [4]): 3%
CCOC(=O)c1cc2c(N3CCN(CCc4ccc(F)cc4)CC3)cccc2s1 [Example 22, ethyl-4-[4-[2-(4-fluorophenyl)ethyl]-1-piperazinyl]-benzo[b]thiophene-2-carboxylate monohydrochloride] | 120 | 0 | 29.5 | 7.4 |  | 
CNC(=O)c1cc2c(N3CCN(CCc4ccccc4)CC3)cccc2s1 [Example 10, 4-[4-(2-phenylethyl)-1-piperazinyl]-benzo[b]thiophene-2-(N-methyl)-carboxamide monohydrochloride] |  | 25 | 0.0251 |  | 1 | IC50 (5HT1A receptor): 1 nM
O=C(NCc1ccccc1)c1cc2c(N3CCN(CCc4ccccc4)CC3)cccc2s1 [Example 13, 4-[4-(2-phenylethyl)-1-piperazinyl]-benzo[b]thiophene-2-(N-phenylmethyl)-carboxamide monohydrochloride] | 31 |  | 1.74 | 27 |  | Emax (5-HT1D receptors; [4]): 0%
NC(=O)c1cc2c(N3CCN(CCCc4ccccc4)CC3)cccc2s1 [Example 17, 4-[4-(3-phenylpropyl)-1-piperazinyl]-benzo[b]thiophene-2-carboxamide monohydrochloride] | 4.5 |  | 16.6 | 1 |  | 

Source: patent US5436246A, “Serotonin receptor agents” (priority 1993, dated 1995)
